Assay results taken from patent US20210087156A1, “PHARMACEUTICALLY ACCEPTABLE SALTS OF BENZODICYCLOALKANE DERIVATIVE, P[…] THEREOF, AND APPLICATION THEREOF” (priority 2018, published 2021).
Values after ≈ are worked out from the molar mass of the structure shown.

How the values were obtained:
Format in all cases: physicochemical
[1] = Solubility test at room temperature
Description: The solubility of the crystal form A, the crystal form C and the free base in 0.1 M HCL, pH 4.5, or pH 6.8 buffer or water was tested at room temperature. In the test, the standard curves of the crystal form A, the crystal form C and the free base were plotted respectively. Subsequently, a appropriate amount of the crystal form A, the crystal form C and the free base was weighed respectively, to which was added a appropriate amount of solvent. The mixture was shaken at room temperature for 24 h, centrifuged. The supernatant was taken and the solubility was determined. The results are shown in Table 7, (the concentration unit is mg/mi).

[2] = Stability test of free base, crystal form A and crystal form C (content and related substance)
Description: The crystal form and purity change were measured respectively on 3rd and 7th day. The results are shown in Table 6, FIGS. 22, 23, 24 and 25. […]

[3] = Properties of crystal form I (DVS hygroscopicity, stability)
Description: The Dynamic Vapor Sorption (DVS) curve was acquired on the DVS Intrinsic of Surface Measurement Systems.
About 10 mg of the free base of the compound of formula X prepared according to the method of Example 1 was weighed into a glass vial, and an appropriate amount of ethyl acetate was added to obtain a nearly saturated solution, which was fully dissolved by ultrasonication and filtered. 20-200 uL of corresponding solvent was added to the clear filtrate, which was stood and the solvent was slowly evaporated at room temperature. After the solvent was completely evaporated, the resulting solid was collected and subjected to an XRPD test.

[4] = 0.1M HCL, room temperature, shaken 24 h
[5] = H2O, room temperature, shaken 24 h
[6] = pH 4.5 buffer, room temperature, shaken 24 h
[7] = pH 6.8 buffer, room temperature, shaken 24 h
[8] = 5° C., 0 d (control), listed as From A
[9] = 40° C./75% RH, 3 d, listed as From A
[10] = 40° C./75% RH, 7 d, listed as From A
[11] = 40° C./75% RH, 3 d, listed as From C
[12] = 40° C./75% RH, 7 d, listed as From C

C[C@@]12CCCCC[C@@H](Cc3ccc(OC(=O)NC4COC4)cc31)[C@@H]2N [Form A]
Final pH [1, 4]: 0.91 | phenomenon [1, 4]: Flocculent | solubility at 24 h ([1]; 0.1 M HCl, simulated gastric fluid, thermodynamic from solid, room temperature, shaken 24 h): 17.8 mg/mL (≈ 51.8 mM) | Final pH [1, 5]: 3.86 | phenomenon [1, 5]: Flocculent | solubility [1, 5]: 8.25 mg/mL (≈ 24 mM) | Final pH [1, 6]: 3.92 | phenomenon [1, 6]: clarified | solubility [1, 6]: ≥8.36 mg/mL | Final pH [1, 7]: 5.86 | phenomenon [1, 7]: clarified | solubility [1, 7]: ≥11.03 mg/mL | character ([2]; 5° C., 0 d (control)): off-white solid | Area (%) [2, 8]: 99.82% | Total impurity (%) [2, 8]: 0.18% | RRT(%) 1.25 (related substance) ([2]; 5° C., 0 d, — = below detection limit): 0.18% | RRT(%) 1.25 (related substance) ([2]; 40° C./75% RH, 3 d): 0.14% | character ([2]; 40° C./75% RH, 3 d): off-white solid | Area (%) [2, 9]: 99.47% | RRT(%) 0.81 (related substance) [2, 9]: 0.39% | Total impurity (%) [2, 9]: 0.53% | RRT(%) 1.25 (related substance) ([2]; 40° C./75% RH, 7 d): 0.17% | character ([2]; 40° C./75% RH, 7 d): off-white solid | Area (%) [2, 10]: 99.28% | RRT(%) 0.81 (related substance) [2, 10]: 0.54% | Total impurity (%) [2, 10]: 0.72% | RRT(%) 1.25 (related substance) ([2]; 60° C., 3 d): 0.20% | character ([2]; 60° C., 3 d): off-white solid | Area (%) ([2]; 60° C., 3 d, listed as From A): 99.68% | RRT(%) 0.81 (related substance) ([2]; 60° C., 3 d, listed as From A): 0.12% | Total impurity (%) ([2]; 60° C., 3 d, listed as From A): 0.32% | RRT(%) 1.25 (related substance) ([2]; 60° C., 7 d): 0.30% | character ([2]; 60° C., 7 d): off-white solid | Area (%) ([2]; 60° C., 7 d, listed as From A): 99.58% | RRT(%) 0.81 (related substance) ([2]; 60° C., 7 d, listed as From A): 0.11% | Total impurity (%) ([2]; 60° C., 7 d, listed as From A): 0.42%

C[C@@]12CCCCC[C@@H](Cc3ccc(OC(=O)NC4COC4)cc31)[C@@H]2N [Form C]
Final pH [1, 4]: 1.53 | phenomenon [1, 4]: clarified | solubility [1, 4]: ≥33.87 mg/mL | Final pH [1, 5]: 3.45 | phenomenon [1, 5]: clarified | solubility [1, 5]: ≥26.05 mg/mL | solubility compared to the free base (in words) ([1]; pH 4.5, pH 6.8, or 0.1 M HCL): increased significantly | Final pH [1, 6]: 3.47 | phenomenon [1, 6]: clarified | solubility [1, 6]: ≥25.50 mg/mL | Final pH [1, 7]: 3.84 | phenomenon [1, 7]: clarified | solubility [1, 7]: ≥26.11 mg/mL | character ([2]; 5° C., 0 d (control)): off-white solid | Area (%) ([2]; 5° C., 0 d (control), listed as From C): 100.00% | RRT(%) 0.70 (related substance) ([2]; 40° C./75% RH, 3 d): 3.60% | RRT(%) 1.14 (related substance) ([2]; 40° C./75% RH, 3 d): 0.93% | character ([2]; 40° C./75% RH, 3 d): off-white solid | Area (%) [2, 11]: 94.92% | RRT(%) 0.81 (related substance) [2, 11]: 0.54% | Total impurity (%) [2, 11]: 5.08% | RRT(%) 0.70 (related substance) ([2]; 40° C./75% RH, 7 d): 3.04% | RRT(%) 1.14 (related substance) ([2]; 40° C./75% RH, 7 d): 0.92% | character ([2]; 40° C./75% RH, 7 d): off-white solid | Area (%) [2, 12]: 95.19% | RRT(%) 0.81 (related substance) [2, 12]: 0.85% | Total impurity (%) [2, 12]: 4.81% | RRT(%) 0.70 (related substance) ([2]; 60° C., 3 d): 3.68% | RRT(%) 1.14 (related substance) ([2]; 60° C., 3 d): 1.44% | character ([2]; 60° C., 3 d): off-white solid | Area (%) ([2]; 60° C., 3 d, listed as From C): 94.64% | RRT(%) 0.81 (related substance) ([2]; 60° C., 3 d, listed as From C): 0.24% | Total impurity (%) ([2]; 60° C., 3 d, listed as From C): 5.36% | RRT(%) 0.70 (related substance) ([2]; 60° C., 7 d): 3.60% | RRT(%) 1.14 (related substance) ([2]; 60° C., 7 d): 1.52% | character ([2]; 60° C., 7 d): off-white solid | Area (%) ([2]; 60° C., 7 d, listed as From C): 94.62% | RRT(%) 0.81 (related substance) ([2]; 60° C., 7 d, listed as From C): 0.26% | Total impurity (%) ([2]; 60° C., 7 d, listed as From C): 5.38%

C[C@@]12CCCCC[C@@H](Cc3ccc(OC(=O)NC4COC4)cc31)[C@@H]2N [Form I]
stability (in words) [3]: good stability | hygroscopicity (DVS curve) ([3]; DVS, 25° C., 0% RH~95% RH): almost has no hygroscopicity
